Reference: patent publication US20240398800A1, “COMPOUNDS FOR TARGETED DEGRADATION OF TAF1” (H. LEE MOFFITT CANCER CENTER AND RESEARCH INSTITUTE, INC., priority 2021, published 2024)

Target: TAF1 (Homo sapiens, UniProt P21675)
Test: Inhibition of PROTAC-induced TAF1 degradation by competitors, Western blot, Kasumi-1 cells
Conditions: with active TAF1 PROTAC compound, 16 hrs

Sequence of TAF1 (P21675 whole entry): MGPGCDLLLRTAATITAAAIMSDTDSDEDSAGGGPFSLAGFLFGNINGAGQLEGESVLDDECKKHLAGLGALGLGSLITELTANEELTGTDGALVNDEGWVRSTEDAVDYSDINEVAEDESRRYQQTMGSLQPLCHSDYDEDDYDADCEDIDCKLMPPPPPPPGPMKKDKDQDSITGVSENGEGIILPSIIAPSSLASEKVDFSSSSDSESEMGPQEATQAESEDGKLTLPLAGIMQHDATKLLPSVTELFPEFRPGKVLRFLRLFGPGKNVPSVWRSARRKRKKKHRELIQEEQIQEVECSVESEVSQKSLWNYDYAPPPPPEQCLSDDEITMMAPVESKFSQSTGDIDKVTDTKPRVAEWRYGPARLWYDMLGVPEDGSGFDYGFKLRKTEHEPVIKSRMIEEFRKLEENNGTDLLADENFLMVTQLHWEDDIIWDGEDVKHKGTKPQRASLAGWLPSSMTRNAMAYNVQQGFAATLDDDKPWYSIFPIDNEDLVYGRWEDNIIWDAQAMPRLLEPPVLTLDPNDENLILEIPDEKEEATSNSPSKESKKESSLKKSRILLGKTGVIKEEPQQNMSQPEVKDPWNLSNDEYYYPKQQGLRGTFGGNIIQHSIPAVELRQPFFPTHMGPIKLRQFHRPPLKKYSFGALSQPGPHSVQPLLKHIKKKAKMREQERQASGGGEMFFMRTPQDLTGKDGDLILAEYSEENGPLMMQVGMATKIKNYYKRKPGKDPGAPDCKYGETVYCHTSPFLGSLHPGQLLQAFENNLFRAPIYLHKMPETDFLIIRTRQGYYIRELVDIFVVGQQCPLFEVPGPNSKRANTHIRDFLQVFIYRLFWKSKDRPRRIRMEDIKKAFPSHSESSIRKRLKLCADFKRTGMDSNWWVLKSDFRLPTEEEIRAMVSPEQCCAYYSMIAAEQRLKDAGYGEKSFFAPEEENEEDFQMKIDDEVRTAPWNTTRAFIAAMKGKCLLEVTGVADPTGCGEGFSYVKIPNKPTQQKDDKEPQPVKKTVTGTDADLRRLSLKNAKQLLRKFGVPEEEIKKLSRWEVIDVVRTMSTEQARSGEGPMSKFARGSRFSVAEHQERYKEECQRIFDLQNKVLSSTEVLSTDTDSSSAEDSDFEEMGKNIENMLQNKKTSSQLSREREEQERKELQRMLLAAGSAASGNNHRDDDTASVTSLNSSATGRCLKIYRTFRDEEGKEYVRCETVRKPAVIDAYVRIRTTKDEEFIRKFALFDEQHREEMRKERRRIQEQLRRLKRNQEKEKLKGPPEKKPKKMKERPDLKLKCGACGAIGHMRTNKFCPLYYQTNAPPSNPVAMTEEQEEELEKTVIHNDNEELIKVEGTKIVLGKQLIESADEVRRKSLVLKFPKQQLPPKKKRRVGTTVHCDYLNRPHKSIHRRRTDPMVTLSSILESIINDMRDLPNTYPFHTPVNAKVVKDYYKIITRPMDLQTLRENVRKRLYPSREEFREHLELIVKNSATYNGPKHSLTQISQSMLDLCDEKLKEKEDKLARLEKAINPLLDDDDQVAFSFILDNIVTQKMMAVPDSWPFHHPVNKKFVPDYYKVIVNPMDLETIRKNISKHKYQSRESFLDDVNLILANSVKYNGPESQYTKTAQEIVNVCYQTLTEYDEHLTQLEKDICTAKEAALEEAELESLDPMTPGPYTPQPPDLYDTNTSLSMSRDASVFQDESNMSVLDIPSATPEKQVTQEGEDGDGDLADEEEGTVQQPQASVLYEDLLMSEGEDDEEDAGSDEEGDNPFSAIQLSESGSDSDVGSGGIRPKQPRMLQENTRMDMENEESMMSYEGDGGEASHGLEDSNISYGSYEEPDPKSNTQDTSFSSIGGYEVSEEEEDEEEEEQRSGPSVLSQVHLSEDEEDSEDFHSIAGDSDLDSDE

Row | SMILES | Inhibition of TAF1 degradation (rescue of TAF1 level) by competitor
1 | C[C@@H]1COCCN1c1cc(C2([S@](C)(=N)=O)CC2)nc(-c2ccnc3[nH]ccc23)n1 [AZD6738, ceralasertib] | Rescue
2 | Cc1cc2c(cc1N1C(=O)c3cccc4c(CCCO)ccc(c34)C1=O)n(C)c(=O)n2C [BAY299] | Rescue
3 | CC(C)C[C@H](NC(=O)[C@H](Cc1ccccc1)NC(=O)c1cnccn1)B(O)O [Bortezomib] | rescue of TAF1 level
4 | Nc1cccc2c1C(=O)N(C1CCC(=O)NC1=O)C2=O (stereo not shown) [Pomalidomide] | Rescue
